Test results as given in article PMC7778606, “Development of the phenylpyrazolo[3,4-d]pyrimidine-based, insulin-like growth factor receptor/Src/AXL-targeting small molecule kinase inhibitor” (Theranostics, 2021).

Assays:
AXL = assay: Western blot, phosphorylation of AXL in H1944 and A549 cells; format: cell-based, human; conditions: 100 nM monotherapy, 1 day
Description: (§1) Before harvesting, the cells were stimulated with 10% FBS for 20 min. Total cell lysates were prepared with modified radioimmunoprecipitation assay lysis buffer (50 mM Tris-HCl [pH 7.4], 150 mM NaCl, 1 mM EDTA, 0.25% sodium deoxycholate, 1% Triton X-100, 100 mM NaF, 5 mM Na3VO4, 1 mM PMSF, 1 μg/mL aprotinin, 1 μg/mL leupeptin, and 1 μg/mL pepstatin). Equal amounts of protein (20 μg) were subjected to 8% SDS-PAGE and electrically transferred onto polyvinylidene difluoride membranes (Bio-Rad Laboratories, Hercules, CA, USA). Membranes were blocked with blocking buffer (3% BSA in Tris-buffered saline containing 0.1% Tween-20 [TBST]) for 1 h at room temperature. The membranes were incubated with primary antibodies diluted in 3% BSA in TBST (1:1,000) overnight at 4 °C, washed multiple times with TBST, and incubated with secondary antibodies diluted in 3% nonfat dry milk in TBST (1:5,000) for 1 h at room temperature. The membranes were washed multiple times with TBST and visualized using an enhanced chemiluminescence detection kit (Thermo Fisher Scientific). Densitometric analysis was performed using ImageJ software.

H1299 cells = assay: MTT assay, viability of H1299 cells; format: cell-based; conditions: Homo sapiens, NCI-H1299, 72 h, three days, read-out: IC50 against the viability
Description: (§2) Cells were seeded into 96-well plates at a density of 1-2 × 10^3 cells/well and incubated for 24 h. Cells were treated with vehicle or various concentrations of test compounds for two (PC9 and PC9/ER cells) or three (other cells) days. Cells were further incubated with MTT solution (final concentration of 500 μg/mL) for 4 h at 37 °C. The formazan products were dissolved in dimethyl sulfoxide (DMSO), and the absorbance was measured at 570 nm. The data are presented as a percentage of the control group.

H460 cells = assay: MTT assay, viability of H460 cells; format: cell-based; conditions: Homo sapiens, NCI-H460, 72 h, three days, read-out: IC50 against the viability
Description: as §2

IGF-1R = assay: Western blot, phosphorylation of IGF-1R in H1944 and A549 cells; format: cell-based, human; conditions: 2 μM monotherapy, 1 day
Description: as §1

A549 cells = assay: MTT assay, viability of A549 cells; format: cell-based; conditions: Homo sapiens, 72 h; A549, MTT assay, 10 μM; read-out: % cells growth at 10 μM
Description: as §2

SMILES	phosphorylation of AXL (AXL)	IC50 (H1299 cells) [nM]	IC50 (H460 cells) [nM]	phosphorylation of IGF-1R (IGF-1R)	activity at 10 µM (A549 cells) [%]
Nc1nc(Nc2ccc3c(c2)CC[C@@H](N2CCCC2)CC3)nn1-c1cc2c(nn1)-c1ccccc1CCC2 [Bemcentinib, bemcentinib]	suppressed phosphorylation	530	180	–	–
C[C@]1(O)C[C@@H](c2nc(-c3ccc4ccc(-c5ccccc5)nc4c3)c3c(N)nccn32)C1 [Linsitinib]	–	12800	3780	suppressed phosphorylation	–
COc1cc(Nc2c(C#N)cnc3cc(OCCCN4CCN(C)CC4)c(OC)cc23)c(Cl)cc1Cl [Bosutinib, bosutinib, reference compound]	–	–	–	–	46
Oc1ccc(Nc2nccc(Nc3cnc4ccccc4c3)n2)cc1 [Compound 23a]	–	–	–	–	69
Cc1ccc(-c2n[nH]c3ncnc(N)c23)cc1 [Compound 1a]	–	–	–	–	98
Cc1nc(Nc2ncc(C(=O)Nc3c(C)cccc3Cl)s2)cc(N2CCN(CCO)CC2)n1 [Dasatinib, dasatinib]	–	20	540	–	–
